The source made the active and inactive calls. The calls are words filed in the database; no cut-off is given here.
Experiments:
Rattus norvegicus [1] = organism: Rattus norvegicus; assay: animal or person; assay type: functional; conditions: Wistar, Plasma, po, 9 h
Rattus norvegicus [2] = organism: Rattus norvegicus; assay: animal or person; assay type: functional; conditions: Wistar, Plasma, po, 0.5 h
Dipeptidyl peptidase 4 = Dipeptidyl peptidase 4 (Rattus norvegicus, UniProt P14740); assay type: cell-free, Plasma
Dipeptidyl peptidase 4, sequence (P14740 whole entry): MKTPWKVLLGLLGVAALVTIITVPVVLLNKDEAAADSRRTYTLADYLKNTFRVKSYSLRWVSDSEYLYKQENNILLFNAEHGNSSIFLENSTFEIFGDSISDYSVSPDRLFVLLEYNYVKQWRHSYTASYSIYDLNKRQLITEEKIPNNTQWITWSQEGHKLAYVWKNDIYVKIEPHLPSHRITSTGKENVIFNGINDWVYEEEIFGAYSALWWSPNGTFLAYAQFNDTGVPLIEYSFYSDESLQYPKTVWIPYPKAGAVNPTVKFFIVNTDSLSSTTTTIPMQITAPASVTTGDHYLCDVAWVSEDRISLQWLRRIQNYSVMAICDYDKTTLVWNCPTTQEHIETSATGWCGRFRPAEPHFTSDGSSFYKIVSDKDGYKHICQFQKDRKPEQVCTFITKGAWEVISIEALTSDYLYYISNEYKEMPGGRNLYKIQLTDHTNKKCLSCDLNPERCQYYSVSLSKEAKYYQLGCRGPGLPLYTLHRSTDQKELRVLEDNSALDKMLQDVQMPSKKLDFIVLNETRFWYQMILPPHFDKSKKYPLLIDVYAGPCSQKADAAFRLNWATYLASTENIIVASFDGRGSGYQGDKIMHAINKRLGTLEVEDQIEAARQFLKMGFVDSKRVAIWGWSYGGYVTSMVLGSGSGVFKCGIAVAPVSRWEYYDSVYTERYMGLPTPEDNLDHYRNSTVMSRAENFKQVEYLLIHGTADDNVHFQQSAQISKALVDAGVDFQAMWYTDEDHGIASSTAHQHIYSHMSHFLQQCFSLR
Description: Inhibition of DPP4 in rat plasma using GLY-Pro-MCA as substrate after 60 mins by fluorescence assay

[3] = Terminal half life in rat at 0.1 mg/kg, po; assay type: ADME, organism-based; set-up: dose 0.1 mg/kg, route oral; conditions: in vivo, read-out: beta t1/2 (converted)
[4] = Cmax in monkey at 0.1 mg/kg, po; assay type: ADME, organism-based, Macaca mulatta; set-up: dose 0.1 mg/kg, route oral; conditions: rhesus monkey, in vivo
[5] = AUC (0 to infinity) in monkey at 1 mg/kg, po; assay type: ADME, organism-based, Macaca mulatta; set-up: time infinity, dose 1 mg/kg, route oral; conditions: rhesus monkey, plasma
[6] = Cmax in rat at 0.1 mg/kg, po; assay type: ADME, organism-based; set-up: dose 0.1 mg/kg, route oral; conditions: in vivo
[7] = AUC (0 to infinity) in monkey at 0.3 mg/kg, po; assay type: ADME, organism-based, Macaca mulatta; set-up: time infinity, dose 0.3 mg/kg, route oral; conditions: rhesus monkey, plasma
[8] = Oral bioavailability in rat at 1 mg/kg; assay type: ADME, organism-based; conditions: in vivo
[9] = AUC (0 to infinity) in monkey at 0.1 mg/kg, po; assay type: ADME, organism-based, Macaca mulatta; set-up: time infinity, dose 0.1 mg/kg, route oral; conditions: rhesus monkey, plasma
[10] = AUC (0 to infinity) in rat at 0.1 mg/kg, po; assay type: ADME, organism-based; set-up: dose 0.1 mg/kg, route oral, time infinity; conditions: plasma
[11] = Terminal half life in rat at 0.3 mg/kg, po; assay type: ADME, organism-based; set-up: dose 0.3 mg/kg, route oral; conditions: in vivo, read-out: beta t1/2 (converted)
[12] = Cmax in rat at 0.3 mg/kg, po; assay type: ADME, organism-based; set-up: dose 0.3 mg/kg, route oral; conditions: in vivo
[13] = Tmax in rat at 0.3 mg/kg, po; assay type: ADME, organism-based; set-up: dose 0.3 mg/kg, route oral; conditions: in vivo
[14] = AUC (0 to infinity) in rat at 0.3 mg/kg, po; assay type: ADME, organism-based; set-up: time infinity, dose 0.3 mg/kg, route oral; conditions: plasma
[15] = Cmax in monkey at 0.3 mg/kg, po; assay type: ADME, organism-based, Macaca mulatta; set-up: dose 0.3 mg/kg, route oral; conditions: rhesus monkey, in vivo
[16] = Tmax in monkey at 1 mg/kg, po; assay type: ADME, organism-based, Macaca mulatta; set-up: dose 1 mg/kg, route oral; conditions: rhesus monkey, in vivo
[17] = Tmax in rat at 0.1 mg/kg, po; assay type: ADME, organism-based; set-up: dose 0.1 mg/kg, route oral; conditions: in vivo
[18] = Terminal half life in monkey at 0.1 mg/kg, po; assay type: ADME, organism-based, Macaca mulatta; set-up: dose 0.1 mg/kg, route oral; conditions: rhesus monkey, in vivo, read-out: beta t1/2 (converted)
[19] = Oral bioavailability in rat at 0.3 mg/kg; assay type: ADME, organism-based; conditions: in vivo
[20] = Terminal half life in monkey at 0.3 mg/kg, po; assay type: ADME, organism-based, Macaca mulatta; set-up: dose 0.3 mg/kg, route oral; conditions: rhesus monkey, in vivo, read-out: beta t1/2 (converted)
[21] = Cmax in rat at 1 mg/kg, po; assay type: ADME, organism-based; set-up: dose 1 mg/kg, route oral; conditions: in vivo
[22] = Oral bioavailability in monkey at 1 mg/kg; assay type: ADME, organism-based, Macaca mulatta; conditions: rhesus monkey, in vivo
[23] = Tmax in monkey at 0.3 mg/kg, po; assay type: ADME, organism-based, Macaca mulatta; set-up: dose 0.3 mg/kg, route oral; conditions: rhesus monkey, in vivo
[24] = Terminal half life in monkey at 1 mg/kg, po; assay type: ADME, organism-based, Macaca mulatta; set-up: dose 1 mg/kg, route oral; conditions: rhesus monkey, in vivo, read-out: beta t1/2 (converted)
[25] = Oral bioavailability in monkey at 0.3 mg/kg; assay type: ADME, organism-based, Macaca mulatta; conditions: rhesus monkey, in vivo
[26] = Oral bioavailability in monkey at 0.1 mg/kg; assay type: ADME, organism-based, Macaca mulatta; conditions: rhesus monkey, in vivo
[27] = Terminal half life in rat at 1 mg/kg, po; assay type: ADME, organism-based; set-up: dose 1 mg/kg, route oral; conditions: in vivo, read-out: beta t1/2 (converted)
[28] = Cmax in monkey at 1 mg/kg, po; assay type: ADME, organism-based, Macaca mulatta; set-up: dose 1 mg/kg, route oral; conditions: rhesus monkey, in vivo
[29] = Oral bioavailability in rat at 0.1 mg/kg; assay type: ADME, organism-based; conditions: in vivo
[30] = Tmax in rat at 1 mg/kg, po; assay type: ADME, organism-based; set-up: dose 1 mg/kg, route oral; conditions: in vivo
[31] = Tmax in monkey at 0.1 mg/kg, po; assay type: ADME, organism-based, Macaca mulatta; set-up: dose 0.1 mg/kg, route oral; conditions: rhesus monkey, in vivo
[32] = AUC (0 to infinity) in rat at 1 mg/kg, po; assay type: ADME, organism-based; set-up: time infinity, dose 1 mg/kg, route oral; conditions: plasma
Rattus norvegicus [33] = assay: Inhibition of DPP4 in po dosed Wistar rat plasma using GLY-Pro-MCA as substrate after 48 hrs by fluorescence assay; assay type: functional, organism-based
Rattus norvegicus [34] = assay: Antidiabetic activity in Zucker fatty rat assessed as decrease in AUC (0 to 60 mins) of plasma glucose level at 0.03 to 1 mg/kg, po administered 30 mins prior to glucose challenge by oral glucose tolerance test; assay type: functional, organism-based
Rattus norvegicus [35] = assay: Sustained inhibition of DPP4 in Wistar rat plasma using GLY-Pro-MCA as substrate at 1 mg/kg, po measured up to 24 hrs by fluorescence assay; assay type: functional, organism-based; set-up: dose 1 mg/kg
Rattus norvegicus [36] = assay: Antidiabetic activity in Zucker fatty rat assessed as normalization of glucose excursion at 0.03 mg/kg, po administered 30 mins prior to glucose challenge by oral glucose tolerance test relative to lean-control; assay type: functional, organism-based; set-up: dose 0.03 mg/kg
Rattus norvegicus [37] = assay: Antidiabetic activity in Zucker fatty rat assessed as decrease in plasma glucose excursion at 0.03 to 1 mg/kg, po administered 30 mins prior to glucose challenge by oral glucose tolerance test; assay type: functional, organism-based

Compound: O=C([C@@H]1C[C@H](N2CCN(c3nnnn3-c3ccccc3)CC2)CN1)N1CCSC1
- inhibition in vivo at 3 µmol/kg (Rattus norvegicus [1]): 70.7%
- inhibition in vivo at 3 µmol/kg (Rattus norvegicus [2]): 85.1%
- IC50 (Dipeptidyl peptidase 4): 0.18 nM

Compound: Cc1cc(N2CCN([C@@H]3CN[C@H](C(=O)N4CCSC4)C3)CC2)n(-c2ccc(C#N)cc2)n1
- IC50 (Dipeptidyl peptidase 4): 13 nM

Compound: Br.Cc1cc(N2CCN([C@@H]3CN[C@H](C(=O)N4CCSC4)C3)CC2)n(-c2ccccc2)n1
- half-life [3]: 15.8 h
- Cmax [4]: 0.0283 µg/mL
- AUC(0-inf) [5]: 1.57 µg·h/mL
- Cmax [6]: 0.00548 µg/mL
- AUC(0-inf) [7]: 0.613 µg·h/mL
- bioavailability [8]: 62.9%
- AUC(0-inf) [9]: 0.295 µg·h/mL
- AUC(0-inf) [10]: 0.0918 µg·h/mL
- half-life [11]: 8.97 h
- Cmax [12]: 0.0206 µg/mL
- Tmax [13]: 0.75 h
- AUC(0-inf) [14]: 0.202 µg·h/mL
- Cmax [15]: 0.0851 µg/mL
- Tmax [16]: 0.88 h
- Tmax [17]: 0.88 h
- half-life [18]: 18.9 h
- bioavailability [19]: 63%
- half-life [20]: 15.2 h
- Cmax [21]: 0.152 µg/mL
- bioavailability [22]: 44.1%
- Tmax [23]: 1.38 h
- half-life [24]: 16.1 h
- bioavailability [25]: 57.6%
- bioavailability [26]: 83.2%
- half-life [27]: 8.43 h
- Cmax [28]: 0.274 µg/mL
- bioavailability [29]: 85.9%
- Tmax [30]: 0.75 h
- Tmax [31]: 0.5 h
- AUC(0-inf) [32]: 0.673 µg·h/mL

Compound: Cc1cc(N2CCN([C@@H]3CN[C@H](C(=O)N4CCSC4)C3)CC2)n(-c2ccccc2F)n1
- inhibition in vivo at 3 µmol/kg (Rattus norvegicus [1]): 34.7%
- inhibition in vivo at 3 µmol/kg (Rattus norvegicus [2]): 75.9%
- IC50 (Dipeptidyl peptidase 4): 0.53 nM

Compound: Cc1cc(N2CCN([C@@H]3CN[C@H](C(=O)N4CCSC4)C3)CC2)n(-c2ccccc2)n1 [TENELIGLIPTIN]
- inhibition in vivo at 3 µmol/kg (Rattus norvegicus [1]): 78.3%
- inhibition in vivo at 3 µmol/kg (Rattus norvegicus [2]): 94.8%

Compound: Cc1cc(N2CCN([C@@H]3CN[C@H](C(=O)N4CCSC4)C3)CC2)n(-c2ccccn2)n1
- inhibition in vivo at 3 µmol/kg (Rattus norvegicus [1]): 53.7%
- inhibition in vivo at 3 µmol/kg (Rattus norvegicus [2]): 83%

Compound: Cc1cc(N2CCN([C@@H]3CN[C@H](C(=O)N4CCSC4)C3)CC2)n(-c2ccc(F)cc2)n1
- IC50 (Dipeptidyl peptidase 4): 2.3 nM

Compound: Cc1cc(N2CCN([C@@H]3CN[C@H](C(=O)N4CCSC4)C3)CC2)n(-c2ccccc2)n1
- inhibition (Rattus norvegicus [33]): Dose-dependent effect
- Activity (Rattus norvegicus [34]): Active
- inhibition (Rattus norvegicus [35]): Active
- Activity (Rattus norvegicus [36]): Active
- Activity (Rattus norvegicus [37]): Active

Compound: Cc1cc(N2CCN([C@@H]3CN[C@H](C(=O)N4CCSC4)C3)CC2)n(-c2ccc(C#N)cn2)n1
- IC50 (Dipeptidyl peptidase 4): 14 nM

Compound: O=C([C@@H]1C[C@H](N2CCN(c3nccn3-c3ccccc3)CC2)CN1)N1CCSC1
- inhibition in vivo at 3 µmol/kg (Rattus norvegicus [1]): 58%
- inhibition in vivo at 3 µmol/kg (Rattus norvegicus [2]): 59.3%
- IC50 (Dipeptidyl peptidase 4): 0.19 nM

Compound: O=C([C@@H]1C[C@H](N2CCN(c3ccnn3-c3ccccc3)CC2)CN1)N1CCSC1
- inhibition in vivo at 3 µmol/kg (Rattus norvegicus [1]): 50.8%
- inhibition in vivo at 3 µmol/kg (Rattus norvegicus [2]): 90.6%
- IC50 (Dipeptidyl peptidase 4): 0.69 nM

Compound: O=C([C@@H]1C[C@H](N2CCN(c3ccnc4ccccc34)CC2)CN1)N1CCSC1
- inhibition in vivo at 3 µmol/kg (Rattus norvegicus [1]): 12.9%
- inhibition in vivo at 3 µmol/kg (Rattus norvegicus [2]): 29.7%

Compound: Cc1cc(N2CCN([C@@H]3CN[C@H](C(=O)N4CCSC4)C3)CC2)n(-c2cccc(F)c2)n1
- inhibition in vivo at 3 µmol/kg (Rattus norvegicus [1]): 75.1%
- inhibition in vivo at 3 µmol/kg (Rattus norvegicus [2]): 96.1%
- IC50 (Dipeptidyl peptidase 4): 0.49 nM

Compound: O=C([C@@H]1C[C@H](N2CCN(c3cc(C(F)(F)F)nn3-c3ccccc3)CC2)CN1)N1CCSC1
- inhibition in vivo at 3 µmol/kg (Rattus norvegicus [1]): 81.8%
- inhibition in vivo at 3 µmol/kg (Rattus norvegicus [2]): 87.4%

Compound: O=C([C@@H]1C[C@H](N2CCN(c3nc(-c4ccccc4)cs3)CC2)CN1)N1CCSC1
- IC50 (Dipeptidyl peptidase 4): 5.4 nM

Compound: O=C([C@@H]1C[C@H](N2CCC(c3nnnn3-c3ccccc3)CC2)CN1)N1CCSC1
- IC50 (Dipeptidyl peptidase 4): 2.9 nM

Compound: O=C([C@@H]1C[C@H](N2CCN(c3nnnn3C3CCCCC3)CC2)CN1)N1CCSC1
- inhibition in vivo at 3 µmol/kg (Rattus norvegicus [1]): 10.5%
- inhibition in vivo at 3 µmol/kg (Rattus norvegicus [2]): 25.6%
- IC50 (Dipeptidyl peptidase 4): 3.1 nM

Compound: O=C([C@@H]1C[C@H](N2CCC(c3cc(C(F)(F)F)nn3-c3ccccc3)CC2)CN1)N1CCSC1
- IC50 (Dipeptidyl peptidase 4): 2.5 nM

Compound: O=C([C@@H]1C[C@H](N2CCN(c3ccccn3)CC2)CN1)N1CCSC1
- inhibition in vivo at 3 µmol/kg (Rattus norvegicus [1]): 19.7%
- inhibition in vivo at 3 µmol/kg (Rattus norvegicus [2]): 62.7%

Compound: Cc1cc(N2CCN([C@@H]3CN[C@H](C(=O)N4CCSC4)C3)CC2)n(-c2ccc(Cl)cc2)n1
- IC50 (Dipeptidyl peptidase 4): 2.9 nM

Compound: Cc1cc(N2CCN([C@@H]3CN[C@H](C(=O)N4CCSC4)C3)CC2)n(-c2ccncc2)n1
- IC50 (Dipeptidyl peptidase 4): 4.7 nM

Compound: Cc1cc(N2CCN([C@@H]3CN[C@H](C(=O)N4CCSC4)C3)CC2)n(-c2cccnc2)n1
- inhibition in vivo at 3 µmol/kg (Rattus norvegicus [1]): 40.8%
- inhibition in vivo at 3 µmol/kg (Rattus norvegicus [2]): 66.9%
- IC50 (Dipeptidyl peptidase 4): 0.77 nM

Reference: ChEMBL document CHEMBL2146473 (Bioorg Med Chem, 2012)
